Experimental data reported in patent publication US4885361A, “Sulfated oligosaccharides” (Hoffmann-La Roche Inc., priority 1987, dated 1989).

Assays:
thrombin (IIa) = assay: Inhibition of Thrombin in the Chromogenic Substrate Assay; type: biochemical; details: amidolytic activity of thrombin reduced by 50% vs plasma control; anti-thrombin III, pH 8.4
Experimental: Inhibition of Thrombin or Factor Xa in the Chromogenic Substrate Assay (Teien et al., Thrombosis Research 10, 399-410 (1977)): The determination was effected in a Cobas-Bio centrifugal automatic spectrophotometer. The buffer solution used consisted of 50 mM Tris buffer, 180 mM NaCl, 7.5 mM EDTA Na2, 1% PEG 6000 (a polyethylene glycol of mol. weight 6000) and 0.02% Tween 80 (a polyoxyethylene sorbitanmonooleate), pH 8.4. The test solution consisted of 50 μl of buffer, 30 μl of anti-thrombin III (1 U/ml), and 20 μl of plasma which contained various concentrations of test compounds. 30 μl of sample solution and 20 μl of water with 180 μl of thrombin were added to the test cuvette in the automatic analyzer. After incubation at 37° C. for 240 seconds 60 μl of the p-nitranilide, H-D-Phe-Pip-Arg-NH.pNA, (0.75 mM in water) and 20 μl of water were added. The liberation of pNA (p-nitroaniline) was followed during 60 seconds at 405 nm in 10 second intervals in comparison to water as the blank. The inhibitory activity is given as the IC50 which is the concentration [μg/ml] at which the amidolytic activity of thrombin is reduced by 50% in comparison to the plasma control value.

Factor Xa [1] = assay: Inhibition of Factor Xa in the Chromogenic Substrate Assay; type: biochemical; details: Factor Xa 2.8 nkat/ml, Bz-CO-Ile-Glu-Arg-NH.pNA
[2] = tested on: HSMC: human smooth muscle cells; assay: anti-proliferative activity, human smooth muscle cells; type: cell-based; details: net proliferation, cells collected on the 7th day, 15% fetal calf serum
Experimental: (§1) Cells of different origin (Swiss 3T3 mouse fibroblastoid cells, HSMC: human smooth muscle cells and endothelial cells, both isolated from human umbilical cord veins) in RPMI 1640 medium containing 10% calf serum (Swiss 3T3 cells), 15% fetal calf serum (HSMC) or 15% fetal calf serum plus 300 μg/ml of endothelial cell growth supplement (endothelial cells) were cultivated at 37° C. in water-saturated air/5% Co2. Confluent cultures were then washed once with HBSS, removed with 0.05% trypsin/0.02%EDTA and collected by centrifugation. The cells were applied to cell culture plates with a density of 5000 cells/culture and the test compound was added one hour later. The cells were then incubated at 37° C. in air/5% CO2 and collected on the 4th day (Swiss 3T3) and on the 7th day (HSMC and endothelial cells). In order to determine th number of cells, these were washed once with HBSS and adhering cells were incubated for 10 minutes at 37° C. with 0.5 ml of trypsin/EDTA solution for separation. 0.5 ml of formol solution (0.5% paraformaldehyde, 0.145M NaCl, 1.3 mM EDTA) was added to each culture in order to fix the cells. […] The number of cells was determined with a Coulter counter. The inhibitory action by the test compounds was determined as follows: [formula] with the net proliferation being the number of cells at the end of the test minus the number of cells on day 1 (=24 hour after inoculation). […]

[3] = tested on: Swiss 3T3 mouse fibroblastoid cells; assay: anti-proliferative activity, Swiss 3T3 cells; type: cell-based; details: net proliferation, cells collected on the 4th day, 10% calf serum
Experimental: as §1

Factor Xa [4] = assay: anti-Xa Clotting Assay; type: biochemical; details: concentration which leads to a coagulation time double the control value; citrated plasma, 37° C.
Experimental: anti-Xa Clotting Assay: 25 μl of citrated plasma having various concentrations of test compound are mixed with 75 μl of Factor Xa (the activated blood coagulation factor X) diluted 1:100 with 0.63% citrated buffer (pH 7.3) which contains 41 mM imidazole, 82 mM NaCl and 0.1% albumin. After warming to 37° C. for 2 minutes 200 μl of a 1:1 mixture of Factor X Deficient Plasma and Platelet Substitute are added and the mixture is incubated at 37° C. for 20 seconds. After the addition of 100 μl of prewarmed 50 mM calcium chloride solution the coagulation time is measured in a Fibrometer.
(§2) The activity of the test compound is given as the IC50 which is the concentration [μg/ml] which leads to a coagulation time which is double the control value.

[5] = tested on: citrated human plasma (aPTT, coagulation); assay: aPTT (activated partial thromboplastin time) Test; type: biochemical; details: concentration which leads to a coagulation time double the control value, 37° C.
Experimental: aPTT (activated partial thromboplastin time) Test (see Walenga et al., CRC Critical Reviews in Laboratory Sciences 22 (4) 361-389 (1986)): 100 μl of citrated human plasma, which contains various concentrations of test compound, is mixed at 37° C. for 8 minutes with 100μ of Activated Thrombofax (ellagic acid as contact activator and bovine cephalin as platelet lipid substitute). 100 μl of pre-warmed 25 mM calcium chloride solution are then added and the coagultion time is measured in a Fibrometer Coagulation Timer.
as §2

[6] = tested on: bloody lesions of the mucous membrane of the stomach; assay: mucosa-protective properties (ethanol-induced stomach lesions); type: in vivo; details: 30 mg/kg oral, 30 minutes prior to ethanol, rat, vs control group
Experimental: The test procedure described hereinafter can be used to determine the mucosa-protective properties:
Oral administration of absolute ethanol to male rats in a dosage of 1 ml per rat leads within 1 hour to bloody lesions of the mucous membrane of the stomach. Various dosages of the substances to be tested (suspended in 0.125% carboxymethylcellulose) or the vehicle alone (control) are administered orally to the rats (1 ml per rat) 30 minutes prior to the treatment with ethanol. One hour after the administration of the ethanol the animals are killed, their stomachs are investigated for the presence of lesions and the number and the total extent of such lesions are determined.

mouse = assay: acute toxicity determination in the mouse; type: in vivo
Experimental: In an acute toxicity determination in the mouse the compound of Example 1 was still not lethal after the intravenous application of 500 mg/kg or after the subcutaneous application of 4000 mg/kg.

Substance | Chromogenic Substrate (amidolytic activity) IC50, IIa (thrombin (IIa)) [µg/mL] | Chromogenic Substrate (amidolytic activity) IC50, Xa (Factor Xa [1]) [µg/mL] | IC50 HSCM [2] [µg/mL] | IC50 Swiss 3T3 [3] [µg/mL] | Coagulation inhibition IC50, Xa (Factor Xa [4]) [µg/mL] | Coagulation inhibition IC50, aPTT [5] [µg/mL] | reduction of the number of lesions [6] [%] | lethal dose (not lethal after), intravenous (mouse; intravenous) [mg/kg] | lethal dose (not lethal after), subcutaneous (mouse; subcutaneous) [mg/kg]
Heparin [reference compound] | 1.9 | 2.7 | 45 | 35 | 0.6 | 1.2 |  |  | 
trestatin A sulfate sodium salt [Example 1] | > 1000 | 550 | 20 | 30 | > 30 | 7 | 28 | > 500 | > 4000
